Experimental data: paper PMC11637875, “Discovery of novel PARP1/NRP1 dual-targeting inhibitors with strong antitumor potency” (Frontiers in Pharmacology, 2024)

Columns and labels:
IGF1R = IGF1R (Homo sapiens, UniProt P08069); assay: Selectivity profile (123 kinase panel); assay type: biochemical
PARP15 = PARP15 (Homo sapiens, UniProt Q460N3); assay: Selectivity profile (other isoforms of PARP and NRP family); assay type: biochemical
FLT4 = FLT4 (Homo sapiens, UniProt P35916); assay: Selectivity profile (123 kinase panel); assay type: biochemical
EPHA5 = EPHA5 (Homo sapiens, UniProt P54756); assay: Selectivity profile (123 kinase panel); assay type: biochemical
PARP12 = PARP12 (Homo sapiens, UniProt Q9H0J9); assay: Selectivity profile (other isoforms of PARP and NRP family); assay type: biochemical
Sequence of PARP12 (Q9H0J9 whole entry, canonical isoform): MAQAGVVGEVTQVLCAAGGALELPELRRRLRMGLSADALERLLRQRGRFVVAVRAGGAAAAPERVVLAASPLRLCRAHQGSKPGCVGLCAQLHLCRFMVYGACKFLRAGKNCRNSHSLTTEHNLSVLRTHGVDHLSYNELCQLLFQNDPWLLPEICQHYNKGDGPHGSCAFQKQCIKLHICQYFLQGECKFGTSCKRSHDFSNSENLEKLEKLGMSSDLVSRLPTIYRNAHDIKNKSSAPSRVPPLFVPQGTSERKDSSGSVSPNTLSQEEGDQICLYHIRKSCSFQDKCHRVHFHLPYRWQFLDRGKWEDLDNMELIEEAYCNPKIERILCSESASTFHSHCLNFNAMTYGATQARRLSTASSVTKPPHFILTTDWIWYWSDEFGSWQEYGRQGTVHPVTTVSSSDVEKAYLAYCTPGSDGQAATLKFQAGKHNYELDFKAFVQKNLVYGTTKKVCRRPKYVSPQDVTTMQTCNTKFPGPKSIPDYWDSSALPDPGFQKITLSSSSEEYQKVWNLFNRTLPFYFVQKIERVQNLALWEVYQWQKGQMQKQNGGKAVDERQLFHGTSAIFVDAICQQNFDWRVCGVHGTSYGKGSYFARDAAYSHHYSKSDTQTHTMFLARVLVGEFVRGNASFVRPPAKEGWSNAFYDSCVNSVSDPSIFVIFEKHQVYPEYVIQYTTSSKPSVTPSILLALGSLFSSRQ

AKT2 = AKT2 (Homo sapiens, UniProt P31751); assay: Selectivity profile (123 kinase panel); assay type: biochemical
Sequence of AKT2 (P31751 whole entry): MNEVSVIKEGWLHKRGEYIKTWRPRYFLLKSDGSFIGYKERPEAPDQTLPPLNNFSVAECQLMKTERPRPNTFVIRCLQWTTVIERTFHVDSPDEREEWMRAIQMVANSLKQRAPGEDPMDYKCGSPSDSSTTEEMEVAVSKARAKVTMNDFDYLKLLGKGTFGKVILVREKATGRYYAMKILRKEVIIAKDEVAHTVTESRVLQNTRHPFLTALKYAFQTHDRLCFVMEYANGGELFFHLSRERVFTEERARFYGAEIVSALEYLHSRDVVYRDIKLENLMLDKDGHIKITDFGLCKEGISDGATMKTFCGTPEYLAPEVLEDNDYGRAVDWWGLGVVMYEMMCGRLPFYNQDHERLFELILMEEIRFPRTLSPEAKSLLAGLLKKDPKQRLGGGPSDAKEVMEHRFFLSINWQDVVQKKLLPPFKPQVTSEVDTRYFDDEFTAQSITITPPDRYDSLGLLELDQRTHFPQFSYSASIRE

JNK3 = JNK3 (Homo sapiens, UniProt P53779); assay: Selectivity profile (123 kinase panel); assay type: biochemical
EPHA3 = EPHA3 (Homo sapiens, UniProt P29320); assay: Selectivity profile (123 kinase panel); assay type: biochemical
HIPK2 = HIPK2 (Homo sapiens, UniProt Q9H2X6); assay: Selectivity profile (123 kinase panel); assay type: biochemical
AurB = AurB (Homo sapiens, UniProt Q96GD4); assay: Selectivity profile (123 kinase panel); assay type: biochemical
PARP3 = PARP3 (Homo sapiens, UniProt Q9Y6F1); assay: Selectivity profile (other isoforms of PARP and NRP family); assay type: biochemical
Sequence of PARP3 (Q9Y6F1 whole entry, canonical isoform): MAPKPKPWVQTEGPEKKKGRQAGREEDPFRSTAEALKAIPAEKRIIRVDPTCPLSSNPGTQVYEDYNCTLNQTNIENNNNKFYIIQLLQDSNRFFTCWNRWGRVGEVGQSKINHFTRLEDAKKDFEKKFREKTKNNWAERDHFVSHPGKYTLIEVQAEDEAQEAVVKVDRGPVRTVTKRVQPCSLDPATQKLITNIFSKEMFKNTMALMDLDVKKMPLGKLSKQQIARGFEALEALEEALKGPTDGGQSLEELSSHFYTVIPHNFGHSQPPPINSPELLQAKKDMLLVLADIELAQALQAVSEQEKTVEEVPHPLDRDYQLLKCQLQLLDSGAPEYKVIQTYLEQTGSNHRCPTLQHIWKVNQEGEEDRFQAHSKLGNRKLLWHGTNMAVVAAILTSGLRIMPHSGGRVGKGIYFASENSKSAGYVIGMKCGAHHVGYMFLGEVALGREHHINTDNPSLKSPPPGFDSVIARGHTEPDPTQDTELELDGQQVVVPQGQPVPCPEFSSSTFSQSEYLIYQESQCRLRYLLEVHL

NIM1K = NIM1K (Homo sapiens, UniProt Q8IY84); assay: Selectivity profile (123 kinase panel); assay type: biochemical
DCAMKL2 = DCAMKL2 (Homo sapiens, UniProt Q8N568); assay: Selectivity profile (123 kinase panel); assay type: biochemical
FGFR1 = FGFR1 (Homo sapiens, UniProt P11362); assay: Selectivity profile (123 kinase panel); assay type: biochemical
PARP10 = PARP10 (Homo sapiens, UniProt Q53GL7); assay: Selectivity profile (other isoforms of PARP and NRP family); assay type: biochemical
Sequence of PARP10 (Q53GL7 whole entry, canonical isoform): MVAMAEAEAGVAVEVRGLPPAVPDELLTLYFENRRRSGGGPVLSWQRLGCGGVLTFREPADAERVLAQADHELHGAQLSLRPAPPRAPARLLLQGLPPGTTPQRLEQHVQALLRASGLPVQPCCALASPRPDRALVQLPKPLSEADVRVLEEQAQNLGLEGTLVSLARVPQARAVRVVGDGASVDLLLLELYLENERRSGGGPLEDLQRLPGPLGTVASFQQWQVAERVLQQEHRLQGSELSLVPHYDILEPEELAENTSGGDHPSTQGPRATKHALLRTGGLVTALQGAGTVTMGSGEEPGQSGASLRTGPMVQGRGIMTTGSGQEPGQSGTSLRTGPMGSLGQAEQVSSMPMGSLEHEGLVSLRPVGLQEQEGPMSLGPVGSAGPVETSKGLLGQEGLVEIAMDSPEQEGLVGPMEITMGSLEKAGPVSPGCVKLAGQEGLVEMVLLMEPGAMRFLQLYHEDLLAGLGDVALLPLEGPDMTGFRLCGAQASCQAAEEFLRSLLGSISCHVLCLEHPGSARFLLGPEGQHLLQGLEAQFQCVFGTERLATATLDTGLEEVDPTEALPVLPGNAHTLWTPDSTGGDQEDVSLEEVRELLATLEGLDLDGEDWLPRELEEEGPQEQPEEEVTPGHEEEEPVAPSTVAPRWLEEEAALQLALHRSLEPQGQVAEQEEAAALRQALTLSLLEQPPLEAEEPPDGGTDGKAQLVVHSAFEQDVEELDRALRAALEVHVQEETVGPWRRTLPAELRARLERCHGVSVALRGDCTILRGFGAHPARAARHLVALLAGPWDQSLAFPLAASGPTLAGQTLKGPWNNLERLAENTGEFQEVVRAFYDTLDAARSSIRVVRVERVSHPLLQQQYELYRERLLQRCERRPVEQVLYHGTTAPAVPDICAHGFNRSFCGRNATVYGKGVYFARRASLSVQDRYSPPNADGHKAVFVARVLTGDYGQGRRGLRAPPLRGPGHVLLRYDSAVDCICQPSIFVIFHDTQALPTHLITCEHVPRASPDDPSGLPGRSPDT

DCAMKL1 = DCAMKL1 (Homo sapiens, UniProt O15075); assay: Selectivity profile (123 kinase panel); assay type: biochemical
CK1δ = CK1δ (Homo sapiens, UniProt P48730); assay: Selectivity profile (123 kinase panel); assay type: biochemical
Sequence of CK1δ (P48730 whole entry): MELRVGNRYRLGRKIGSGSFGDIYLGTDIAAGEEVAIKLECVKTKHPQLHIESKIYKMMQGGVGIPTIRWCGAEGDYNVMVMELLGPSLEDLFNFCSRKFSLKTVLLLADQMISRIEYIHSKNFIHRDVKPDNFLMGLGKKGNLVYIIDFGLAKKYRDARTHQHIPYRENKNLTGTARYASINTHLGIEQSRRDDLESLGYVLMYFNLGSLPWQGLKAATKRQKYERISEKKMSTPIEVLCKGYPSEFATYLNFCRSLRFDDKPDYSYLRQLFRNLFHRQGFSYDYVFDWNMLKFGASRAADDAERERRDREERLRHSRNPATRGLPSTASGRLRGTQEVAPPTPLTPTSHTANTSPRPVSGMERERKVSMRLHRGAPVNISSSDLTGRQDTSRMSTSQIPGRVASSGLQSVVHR

HCK = HCK (Homo sapiens, UniProt P08631); assay: Selectivity profile (123 kinase panel); assay type: biochemical
Erk7 = Erk7 (Homo sapiens, UniProt Q8TD08); assay: Selectivity profile (123 kinase panel); assay type: biochemical
Sequence of Erk7 (Q8TD08 whole entry, species assumed): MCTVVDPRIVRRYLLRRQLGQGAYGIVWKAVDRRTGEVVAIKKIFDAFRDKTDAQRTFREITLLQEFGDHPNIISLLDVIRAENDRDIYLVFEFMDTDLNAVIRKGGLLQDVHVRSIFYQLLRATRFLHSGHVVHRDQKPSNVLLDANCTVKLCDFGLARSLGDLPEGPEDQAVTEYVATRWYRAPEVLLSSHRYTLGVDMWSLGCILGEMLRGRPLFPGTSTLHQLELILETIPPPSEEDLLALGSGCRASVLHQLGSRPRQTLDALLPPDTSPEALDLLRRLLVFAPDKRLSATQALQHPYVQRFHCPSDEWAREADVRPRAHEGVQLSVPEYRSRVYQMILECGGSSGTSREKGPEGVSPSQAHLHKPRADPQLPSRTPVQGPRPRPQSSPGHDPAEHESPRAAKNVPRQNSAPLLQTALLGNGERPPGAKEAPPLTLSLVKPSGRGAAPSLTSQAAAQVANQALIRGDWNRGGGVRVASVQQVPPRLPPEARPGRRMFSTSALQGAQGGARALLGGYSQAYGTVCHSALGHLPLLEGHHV

DYRK2 = DYRK2 (Homo sapiens, UniProt Q92630); assay: Selectivity profile (123 kinase panel); assay type: biochemical
NEK2 = NEK2 (Homo sapiens, UniProt P51955); assay: Selectivity profile (123 kinase panel); assay type: biochemical
BRSK2 = BRSK2 (Homo sapiens, UniProt Q8IWQ3); assay: Selectivity profile (123 kinase panel); assay type: biochemical
[1] = system: MDA-MB-231 xenograft tumor; assay: In vivo antitumor assay; parameters: species or system BALB/c nude mice; settings: for body weight (g) in mice, mean / tumor volume (mm^3), mean: 5 mg/kg intraperitoneally every 3 days, n = 6
Method: Twenty-four female BALB/c nude mice (body weight 16–20 g) at 4–6 weeks old were purchased from Changzhou Cavens Experimental Animal Limited Company (Changzhou, China). Mice were adaptively housed for 1 week in a specific pathogen-free (SPF) environment with a temperature of 25°C ± 2°C, a 12-hour light/dark cycle, and free access to food and water. MDA-MB-231 breast cancer cells (200 μL, 1×10^7 cells) were suspended in PBS to formulate cell suspension, and 0.1 mL of cells were injected into the axilla of the left forelimb of mice by subcutaneous injection. […] Equal concentrations of drug-free PBS buffer were used for the vehicle group. Each group was administered every 3 days and the body weight and tumor size of the mice were recorded. Mice were executed when the tumor volume approached 2000 mm^3. Tumor volumes of all mice were measured using vernier calipers. The mice were placed belly up and the longest diameter of the tumor was measured with the inner bayonet of a vernier caliper, and the shortest transverse diameter perpendicular to the diameter was measured with the inner bayonet of a vernier caliper and recorded. Tumor volume was estimated according to the following formula: (c × c × d)/2 (c, the smallest diameter; d, the largest diameter). All animal experiments were performed and approved by the Ethics Committee of China Pharmaceutical University.

AurC = AurC (Homo sapiens, UniProt Q9UQB9); assay: Selectivity profile (123 kinase panel); assay type: biochemical
FRK = FRK (Homo sapiens, UniProt P42685); assay: Selectivity profile (123 kinase panel); assay type: biochemical

Sequence of IGF1R (P08069 31-1367): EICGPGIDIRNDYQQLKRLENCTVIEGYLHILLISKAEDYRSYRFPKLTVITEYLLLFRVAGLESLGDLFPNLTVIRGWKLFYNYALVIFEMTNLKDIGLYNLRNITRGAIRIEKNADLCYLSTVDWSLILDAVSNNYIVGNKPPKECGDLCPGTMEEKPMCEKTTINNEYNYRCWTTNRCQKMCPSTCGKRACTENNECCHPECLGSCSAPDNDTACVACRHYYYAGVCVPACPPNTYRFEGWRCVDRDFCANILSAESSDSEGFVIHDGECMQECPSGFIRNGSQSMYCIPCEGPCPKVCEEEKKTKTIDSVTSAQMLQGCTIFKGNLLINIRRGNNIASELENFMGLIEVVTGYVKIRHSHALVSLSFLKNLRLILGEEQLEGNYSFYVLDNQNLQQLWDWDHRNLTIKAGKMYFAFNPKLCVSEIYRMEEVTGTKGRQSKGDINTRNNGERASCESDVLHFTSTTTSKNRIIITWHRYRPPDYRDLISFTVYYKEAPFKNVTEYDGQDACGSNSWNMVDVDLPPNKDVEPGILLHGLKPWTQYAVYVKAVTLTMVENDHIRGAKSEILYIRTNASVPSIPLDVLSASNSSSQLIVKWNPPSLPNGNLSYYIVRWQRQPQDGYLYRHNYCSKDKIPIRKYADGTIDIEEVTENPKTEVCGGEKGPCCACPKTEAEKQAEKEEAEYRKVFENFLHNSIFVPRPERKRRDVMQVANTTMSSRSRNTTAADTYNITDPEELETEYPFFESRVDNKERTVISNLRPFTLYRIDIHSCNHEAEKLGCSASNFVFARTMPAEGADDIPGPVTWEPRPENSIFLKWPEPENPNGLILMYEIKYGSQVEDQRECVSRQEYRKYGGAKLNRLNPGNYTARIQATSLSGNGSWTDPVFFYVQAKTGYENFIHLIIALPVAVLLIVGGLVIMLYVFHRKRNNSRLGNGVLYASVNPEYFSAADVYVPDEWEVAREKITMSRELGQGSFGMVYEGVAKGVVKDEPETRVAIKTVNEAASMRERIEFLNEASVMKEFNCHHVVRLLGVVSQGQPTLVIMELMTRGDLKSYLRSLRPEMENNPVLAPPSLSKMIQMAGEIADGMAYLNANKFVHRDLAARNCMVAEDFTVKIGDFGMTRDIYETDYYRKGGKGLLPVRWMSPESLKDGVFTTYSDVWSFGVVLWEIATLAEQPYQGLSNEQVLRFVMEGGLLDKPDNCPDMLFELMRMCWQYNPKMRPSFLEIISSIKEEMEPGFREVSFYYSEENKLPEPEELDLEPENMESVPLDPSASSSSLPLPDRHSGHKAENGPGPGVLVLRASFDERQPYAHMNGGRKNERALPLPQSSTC

`NC(N)=NCCC[C@H](NCN1CCN(C(=O)c2cc(Cc3n[nH]c(=O)c4ccccc34)ccc2F)CC1)C(=O)O` [PPNR-4] was tested, and the IC50 (IGF1R) was > 10 µM, the IC50 (PARP15) was > 10 µM and the IC50 (FLT4) was > 10 µM. For the same molecule, the IC50 (EPHA5) was > 10 µM, the IC50 (PARP12) was > 10 µM and the IC50 (AKT2) was > 10 µM. The IC50 (JNK3) was > 10 µM, the IC50 (EPHA3) was > 10 µM and the IC50 (HIPK2) was > 10 µM. The IC50 (AurB) was > 10 µM, the IC50 (PARP3) was > 10 µM and the IC50 (NIM1K) was > 10 µM. For the same molecule, the IC50 (DCAMKL2) was > 10 µM, the IC50 (FGFR1) was > 10 µM and the IC50 (PARP10) was > 10 µM. The IC50 (DCAMKL1) was > 10 µM, the IC50 (CK1δ) was > 10 µM and the IC50 (HCK) was > 10 µM. For the same molecule, the IC50 (Erk7) was > 10 µM, the IC50 (DYRK2) was > 10 µM and the IC50 (NEK2) was > 10 µM. For the same molecule, the IC50 (BRSK2) was > 10 µM, the “inhibitory effect on tumor volume growth” value ([1]; 5 mg/kg, in comparison to the olaparib or EG00229-treated groups) was “more remarkable inhibitory effect on tumor volume growth” and the “body weight (g) in mice, mean” value ([1]; day 0) was 18.41 g. For the same molecule, the “tumor volume (mm^3), mean” value ([1]; day 0) was 99 mm^3, the “body weight (g) in mice, mean” value ([1]; day 3) was 18.62 g and the “tumor volume (mm^3), mean” value ([1]; day 3) was 155 mm^3. For the same molecule, the “body weight (g) in mice, mean” value ([1]; day 6) was 18.85 g, the “tumor volume (mm^3), mean” value ([1]; day 6) was 196 mm^3 and the “body weight (g) in mice, mean” value ([1]; day 9) was 19.07 g. For the same molecule, the “tumor volume (mm^3), mean” value ([1]; day 9) was 253 mm^3, the “body weight (g) in mice, mean” value ([1]; day 12) was 19.33 g and the “tumor volume (mm^3), mean” value ([1]; day 12) was 226 mm^3. The IC50 (AurC) was > 10 µM and the IC50 (FRK) was > 10 µM.
